# Reference: US11130960B2, “Methods for conferring or enhancing herbicide resistance on plants and/or alga with protoporphyrinogen oxidase variants” (FARM HANNONG CO., LTD., priority 2014, dated 2021)
# Entries after “also recorded” stand apart in the source; their conditions may differ.
# Key:
# CyPPO8 = experiment: Growth of transformed BT3(ΔPPO) E. coli in LB liquid medium (OD600); format: cell-based, Halothece sp. PCC 7418; settings: 37° C., OD600 over culture time
# Procedure: In Example 3, herbicide resistance of respective BT3(ΔPPO) strains transformed with the wild-type AtPPO1, mutant AtPPO1, CyPPO2, CyPPO4 or CyPPO8 gene was investigated on agar media containing different herbicides, and in this Example, herbicide resistance of the strains was investigated in LB liquid media containing different herbicides.
# HV-50 autoclave from Hirayama, HS2100A electronic scale from Hansung Instrument, CB-30V clean bench from Jeio Tech, JSI-200CL incubator from JSR, MQ-200 photometer from Apogee, and 1210 type UV-visible spectrophotometer from Thermo Fisher Scientific were used. The autoclave was used under conditions of 121° C. and 15 minutes, and the incubator was used at 37° C. with lighting of 160˜200 μmol m^−2s^−1 for a culture time of 13.5 hours. The UV-visible spectrophotometer was used at 600 nm.
# Tiafenacil (M.W. 511.87 g/mol), Saflufenacil (M.W. 500.85 g/mol), and Fomesafen (M.W. 438.76 g/mol) used in the experiment were purchased from Dongbu Farm Hannong Co., Ltd, Sigma, and Sigma, respectively. […]
# For seed culture of E. coli transformed with respective genes, single colonies thereof were cultured in 3 ml of LB broth containing chloramphenicol for 12 hours, and they were diluted with LB broth to absorbance (OD600) of 1.5. […] Absorbance (OD600) was measured using a spectrophotometer every 1.5 hours. […]
# CyPPO8 transformants = experiment: Seed germination / growth on ½ MS medium containing herbicide; format: in vivo, Arabidopsis thaliana; settings: for germination / growth on herbicide medium after 2 weeks: ½ MS medium with 70 nM Tiafenacil
# Procedure: (§1) To examine tiafenacil resistance of T2 generation seeds which survived under treatment of 1 μM tiafenacil, among the CyPPO2 and CyPPO8 transformants, Arabidopsis thaliana seeds were sown in ½ MS medium (1.125 g/L of MS salt, 10 g/L of sucrose, 7 g/L of Agar) containing 70 nM tiafenacil. […] Therefore, survival under 70 nM tiafenacil means that a plant has resistance against tiafenacil.
# (§2) In Arabidopsis thaliana transformant including CyPPO2 or CyPPO8 gene, which was obtained by transformation using the plant transformation vector prepared in Example 6, the PPO activity-inhibiting herbicide-resistant gene and glufosinate-resistant gene are expressed at the same time. Therefore, it was examined whether cross-treatment of Arabidopsis thaliana transformant with two herbicides, namely, PPO activity-inhibiting herbicide and glufosinate is effective for weed control. To this end, seeds of CyPPO2 and BAR gene-inserted Arabidopsis thaliana transformant, or CyPPO8 and BAR gene-inserted Arabidopsis thaliana transformant were sterilized and treated at low temperature of 4° C. for 2 days. The seeds were sown in a ½ MS medium (Duchefa), a ½MS medium containing 70 nM Tiafenacil, a ½MS medium containing 50 uM glufosinate, or a ½MS medium containing 70 nM Tiafenacil and 50 uM glufosinate, and grown at 23° C. under 16 hour-light/8 hour-dark conditions for 7-14 days. Arabidopsis thaliana on the herbicide media was CyPPO2 or CyPPO8-transformed seed and the wild-type Col0 as a control, respectively. The transformant and the control were cultured on herbicide media. After 2 weeks, they were examined.
# (§3) In Example 9, it was confirmed that Arabidopsis thaliana transformant prepared in the present invention has resistance against the two PPO-based herbicides, Tiafenacil and Saflufenacil at the same time, and therefore, it was tested whether the cross-treatment of Arabidopsis thaliana transformant with Tiafenacil and Saflufenacil is effective for weed control. To this end, seeds of CyPPO2 or CyPPO8 gene-inserted Arabidopsis thaliana transformant were sterilized and treated at low temperature of 4° C. for 2 days. The seeds were sown in a ½ MS medium, a ½MS medium containing 70 nM Tiafenacil, a ½MS medium containing 70 nM Saflufenacil, or a ½MS medium containing 35 nM Tiafenacil and 35 nM Saflufenacil, and grown at 23° C. under 16 hour-light/8 hour-dark conditions for 7-14 days. Arabidopsis thaliana on the herbicide media was CyPPO2 or CyPPO8-transformed seed and the wild-type Col0 as a control, respectively. The transformant and the control were cultured on herbicide media. After 2 weeks, they were examined.
# CyPPO2 transformants = experiment: as above; format: in vivo, Arabidopsis thaliana; settings: for germination / growth on herbicide medium after 2 weeks: ½ MS medium with 70 nM Tiafenacil
# Procedure: as §1, §2, §3
# [1] = test system: wild-type Arabidopsis thaliana (Col-0); experiment: as above; format: in vivo; settings: for germination / growth on herbicide medium after 2 weeks: ½ MS medium with 70 nM Tiafenacil
# Procedure: as §1, §2, §3
# [2] = 70 nM Saflufenacil, or 35 nM Tiafenacil and 35 nM Saflufenacil
Compound,concentration by which the strain normally grew (CyPPO8) [µM],germination / growth on herbicide medium after 2 weeks (CyPPO8 transformants; [2]),germination / growth on herbicide medium after 2 weeks (CyPPO2 transformants; [2]),"germination / growth on herbicide medium after 2 weeks [1, 2]","germination / growth on herbicide medium after 2 weeks (CyPPO8 transformants; CyPPO8 and BAR gene-inserted, 50 uM glufosinate, or both)","seed germination (CyPPO8 transformants; ½ MS medium containing 70 nM tiafenacil, T2 generation lines no. 6, 16 and 40)","germination / growth on herbicide medium after 2 weeks (CyPPO2 transformants; CyPPO2 and BAR gene-inserted, 50 uM glufosinate, or both)","seed germination (CyPPO2 transformants; ½ MS medium containing 70 nM tiafenacil, T2 generation lines no. 1 and 49)",seed germination ([1]; ½ MS medium containing 50 nM tiafenacil),seed germination ([1]; ½ MS medium containing 70 nM tiafenacil),"germination / growth on herbicide medium after 2 weeks ([1]; 50 uM glufosinate, or 70 nM Tiafenacil and 50 uM glufosinate)"
CS(=O)(=O)NC(=O)c1cc(Oc2ccc(C(F)(F)F)cc2Cl)ccc1[N+](=O)[O-] [Fomesafen],≤ 100,,,,,,,,,,
CC(C)N(C)S(=O)(=O)NC(=O)c1cc(-n2c(=O)cc(C(F)(F)F)n(C)c2=O)c(F)cc1Cl [Saflufenacil],≤ 100,normally grew,normally grew,not germinated,,,,,,,
COC(=O)CCNC(=O)C(C)Sc1cc(-n2c(=O)cc(C(F)(F)F)n(C)c2=O)c(F)cc1Cl (stereo not drawn) [Tiafenacil],,normally grew,normally grew,not germinated,normally grew,showed germination,normally grew,showed germination,reduced seed germination,no normal seed germination and was killed; also recorded: showed no germination,not germinated
